Source: patent publication US10660877B2 (BRISTOL-MYERS SQUIBB COMPANY, priority 2016, dated 2020)
Read-outs that look alike come from different tables or passages of the source.

Assays:
human TLR7 = human TLR7 (Homo sapiens (Human), UniProt Q9NYK1); experiment: TLR7 inhibition reporter assay (HEK-Blue cells, SEAP reporter, gardiquimod stimulation); type: cell-based
human TLR8 = human TLR8 (Homo sapiens (Human), UniProt Q9NR97); experiment: TLR8 inhibition reporter assay (HEK-Blue cells, SEAP reporter, R848 stimulation);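 note: compounds tested from 0.05 nM to 50 µM, 22 h at 37 °C, SEAP measured with HEK-Blue Detection, inhibition relative to agonist plus DMSO versus a known inhibitor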
Sequence of human TLR8 (Q9NR97 27-1041): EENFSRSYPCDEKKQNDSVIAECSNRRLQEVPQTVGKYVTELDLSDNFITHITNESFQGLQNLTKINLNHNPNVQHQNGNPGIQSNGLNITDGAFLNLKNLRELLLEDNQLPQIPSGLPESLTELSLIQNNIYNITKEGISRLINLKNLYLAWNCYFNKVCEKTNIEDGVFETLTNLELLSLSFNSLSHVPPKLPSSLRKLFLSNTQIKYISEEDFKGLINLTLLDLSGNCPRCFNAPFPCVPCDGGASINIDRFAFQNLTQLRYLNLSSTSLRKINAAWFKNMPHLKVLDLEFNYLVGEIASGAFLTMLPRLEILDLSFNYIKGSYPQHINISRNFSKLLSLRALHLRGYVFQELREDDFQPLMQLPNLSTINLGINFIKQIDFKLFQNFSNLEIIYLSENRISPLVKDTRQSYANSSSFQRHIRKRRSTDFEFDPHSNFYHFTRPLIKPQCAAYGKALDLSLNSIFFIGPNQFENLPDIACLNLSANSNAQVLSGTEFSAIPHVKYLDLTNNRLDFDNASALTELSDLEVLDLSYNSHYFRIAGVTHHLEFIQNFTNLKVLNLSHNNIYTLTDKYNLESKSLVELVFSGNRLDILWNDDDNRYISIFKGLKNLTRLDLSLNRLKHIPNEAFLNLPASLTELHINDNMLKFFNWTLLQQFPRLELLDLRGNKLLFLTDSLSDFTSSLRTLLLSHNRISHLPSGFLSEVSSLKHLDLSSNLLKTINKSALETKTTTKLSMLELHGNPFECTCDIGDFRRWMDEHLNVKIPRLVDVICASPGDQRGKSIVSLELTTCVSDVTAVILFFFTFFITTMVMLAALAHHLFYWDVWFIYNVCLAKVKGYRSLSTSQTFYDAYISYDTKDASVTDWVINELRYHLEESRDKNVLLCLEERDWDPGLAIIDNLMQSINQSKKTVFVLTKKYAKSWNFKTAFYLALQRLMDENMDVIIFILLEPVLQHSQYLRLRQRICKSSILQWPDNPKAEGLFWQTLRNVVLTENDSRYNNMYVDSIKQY

human TLR9 = human TLR9 (Homo sapiens (Human), UniProt Q9NR96); experiment: TLR9 inhibition reporter assay (HEK-Blue cells, SEAP reporter, ODN2006 stimulation);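 note: compounds tested over 0.05 nM to 50 µM, 22 h incubation, inhibition taken as SEAP signal drop from agonist plus DMSO wells toward a known inhibitor control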
Sequence of human TLR9 (Q9NR96 26-1032): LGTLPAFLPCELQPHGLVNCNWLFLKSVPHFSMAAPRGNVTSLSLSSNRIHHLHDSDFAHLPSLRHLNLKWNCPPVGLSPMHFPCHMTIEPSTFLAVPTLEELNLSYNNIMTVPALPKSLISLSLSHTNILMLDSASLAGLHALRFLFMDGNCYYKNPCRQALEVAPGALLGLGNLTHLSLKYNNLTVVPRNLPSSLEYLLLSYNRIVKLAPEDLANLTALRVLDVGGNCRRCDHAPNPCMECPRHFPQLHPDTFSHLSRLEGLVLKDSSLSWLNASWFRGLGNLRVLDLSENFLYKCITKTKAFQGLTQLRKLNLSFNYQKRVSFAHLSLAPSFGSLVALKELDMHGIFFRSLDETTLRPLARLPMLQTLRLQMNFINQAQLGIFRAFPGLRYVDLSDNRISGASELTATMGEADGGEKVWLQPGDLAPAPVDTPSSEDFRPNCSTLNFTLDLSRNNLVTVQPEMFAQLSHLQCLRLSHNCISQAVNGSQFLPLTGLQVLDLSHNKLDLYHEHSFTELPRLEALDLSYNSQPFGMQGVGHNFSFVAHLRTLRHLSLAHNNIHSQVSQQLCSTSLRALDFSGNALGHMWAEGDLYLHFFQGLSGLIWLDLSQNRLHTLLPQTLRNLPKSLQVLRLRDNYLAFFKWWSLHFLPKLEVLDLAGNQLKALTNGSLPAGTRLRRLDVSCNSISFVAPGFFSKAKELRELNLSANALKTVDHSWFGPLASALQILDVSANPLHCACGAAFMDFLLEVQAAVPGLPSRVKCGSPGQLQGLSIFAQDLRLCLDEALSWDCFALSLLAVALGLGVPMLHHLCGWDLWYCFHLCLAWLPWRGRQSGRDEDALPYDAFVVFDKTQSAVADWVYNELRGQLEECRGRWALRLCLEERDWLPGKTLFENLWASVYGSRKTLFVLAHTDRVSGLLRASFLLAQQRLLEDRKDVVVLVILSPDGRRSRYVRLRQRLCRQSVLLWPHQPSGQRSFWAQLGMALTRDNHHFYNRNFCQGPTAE

[1] = HEK-Blue cells overexpressing human TLR7, gardiquimod 7.5 μM
[2] = read-out: TLR8 IC50, HEK-Blue cells overexpressing human TLR8, R848 15.9 μM
[3] = read-out: TLR9 IC50, HEK-Blue cells overexpressing human TLR9, ODN2006 5 nM
[4] = HEK-Blue cells, gardiquimod 7.5 μM
[5] = read-out: TLR8 IC50, HEK-Blue cells, R848 15.9 μM
[6] = read-out: TLR9 IC50, HEK-Blue cells, ODN2006 5 nM
[7] = TLR8 IC50, HEK-Blue cells overexpressing human TLR8, R848 15.9 μM
[8] = TLR9 IC50, HEK-Blue cells overexpressing human TLR9, ODN2006 5 nM

Sequence of human TLR7 (Q9NYK1 27-1049): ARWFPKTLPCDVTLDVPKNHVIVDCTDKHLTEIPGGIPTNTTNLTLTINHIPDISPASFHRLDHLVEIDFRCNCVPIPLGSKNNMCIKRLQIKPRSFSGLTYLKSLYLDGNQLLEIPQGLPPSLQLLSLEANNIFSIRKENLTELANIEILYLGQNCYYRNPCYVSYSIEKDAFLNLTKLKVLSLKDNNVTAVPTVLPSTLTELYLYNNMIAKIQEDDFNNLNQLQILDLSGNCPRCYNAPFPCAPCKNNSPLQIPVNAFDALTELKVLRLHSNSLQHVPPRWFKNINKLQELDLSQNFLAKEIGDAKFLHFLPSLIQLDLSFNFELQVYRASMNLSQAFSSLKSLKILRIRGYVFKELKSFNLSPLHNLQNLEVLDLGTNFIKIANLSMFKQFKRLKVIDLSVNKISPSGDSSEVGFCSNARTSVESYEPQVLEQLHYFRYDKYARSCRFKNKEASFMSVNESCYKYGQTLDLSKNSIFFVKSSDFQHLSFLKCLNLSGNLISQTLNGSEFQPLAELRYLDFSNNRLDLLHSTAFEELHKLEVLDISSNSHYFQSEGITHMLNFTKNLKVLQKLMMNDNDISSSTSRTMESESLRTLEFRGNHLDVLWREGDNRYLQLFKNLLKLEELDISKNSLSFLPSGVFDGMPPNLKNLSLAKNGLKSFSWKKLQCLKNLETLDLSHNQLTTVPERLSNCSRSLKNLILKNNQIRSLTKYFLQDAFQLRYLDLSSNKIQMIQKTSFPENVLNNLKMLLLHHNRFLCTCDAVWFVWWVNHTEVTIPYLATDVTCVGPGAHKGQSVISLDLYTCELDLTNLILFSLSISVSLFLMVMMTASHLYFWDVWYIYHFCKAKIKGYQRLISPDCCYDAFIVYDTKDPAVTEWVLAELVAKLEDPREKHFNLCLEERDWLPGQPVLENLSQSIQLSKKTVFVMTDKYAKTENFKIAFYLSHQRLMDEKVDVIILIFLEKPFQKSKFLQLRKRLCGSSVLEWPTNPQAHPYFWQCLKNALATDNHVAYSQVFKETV

| SMILES | IC50 (human TLR7; [1]) | IC50 (human TLR8; [2]) | IC50 (human TLR9; [3]) | IC50 (human TLR7; [4]) | IC50 (human TLR8; [5]) | IC50 (human TLR9; [6]) | IC50 (human TLR8; [7]) | IC50 (human TLR9; [8]) |
| --- | --- | --- | --- | --- | --- | --- | --- | --- |
| Cc1cc(-c2[nH]c3ccc(C4CCN(CC(=O)N5CCCCC5)CC4)cc3c2C(C)C)cc(C)n1 [Example 241, 2-(4-(2-(2,6-dimethylpyridin-4-yl)-3-isopropyl-1H-indol-5-yl)piperidin-1-yl)-1-(piperidin-1-yl)ethan-1-one] | 6.4 nM | 10.7 nM | 444 nM |  |  |  |  |  |
| Cc1cc(-c2[nH]c3ccc(C4CCN(C(=O)CC#N)CC4)cc3c2C(C)C)ccn1 [Example 616, 3-(4-(3-isopropyl-2-(2-methylpyridin-4-yl)-1H-indol-5-yl)piperidin-1-yl)-3-oxopropanenitrile] | 33.7 nM | 121 nM | 32900 nM |  |  |  |  |  |
| Cc1cc(-c2[nH]c3ccc(C4CCN(C5CCN(C(C)C)CC5)CC4)cc3c2CC(F)F)cc(C)n1 [Example 540, 3-(2,2-difluoroethyl)-2-(2,6-dimethylpyridin-4-yl)-5-(1′-isopropyl-[1,4′-bipiperidin]-4-yl)-1H-indole] | 11.8 nM | 25.6 nM | 131 nM |  |  |  |  |  |
| Cc1cc(-c2[nH]c3ccc(C4CCNCC4)cc3c2C(C)C)c(C#N)c(NCC2CC2)n1 [Example 32, 2-((cyclopropylmethyl)amino)-4-(3-isopropyl-5-(piperidin-4-yl)-1H-indol-2-yl)-6-methylnicotinonitrile] | 4070 nM | 3680 nM | 3990 nM |  |  |  |  |  |
| CC(=O)N(C)CCC(=O)N1CCC(c2ccc3[nH]c(-c4cc(C)nc(C)c4)c(C(C)C)c3c2)CC1 [Example 134, N-(3-(4-(2-(2,6-dimethylpyridin-4-yl)-3-isopropyl-1H-indol-5-yl)piperidin-1-yl)-3-oxopropyl)-N-methylacetamide] | 11.4 nM | 90.3 nM | 34600 nM |  |  |  |  |  |
| Cc1cc(-c2[nH]c3ccc(C4CCN(CC(=O)N5CCOC[C@H]5CO)CC4)cc3c2C(C)C)cc(C)n1 [Example 304, (R)-2-(4-(2-(2,6-dimethylpyridin-4-yl)-3-isopropyl-1H-indol-5-yl)piperidin-1-yl)-1-(3-(hydroxymethyl)morpholino)ethan-1-one] | 10.3 nM | 42.6 nM | 441 nM |  |  |  |  |  |
| CC(C)c1c(-c2ccnc(N)c2)[nH]c2ccc(C3CCNCC3)cc12 [Example 8, 4-(3-isopropyl-5-(piperidin-4-yl)-1H-indol-2-yl)pyridin-2-amine] | 34.4 nM | 28.8 nM | 160 nM |  |  |  |  |  |
| CC(C)c1c(-c2cc(F)ncc2Cl)[nH]c2ccc(C3CCNCC3)cc12 [Example 18, 2-(5-chloro-2-fluoropyridin-4-yl)-3-isopropyl-5-(piperidin-4-yl)-1H-indole] | 177 nM | 47 nM | 6270 nM |  |  |  |  |  |
| Cc1cc(-c2[nH]c3ccc(C4CCN(CC(C)(C)O)CC4)cc3c2C(C)C)c(C)cn1 [Example 851, 1-(4-(2-(2,5-dimethylpyridin-4-yl)-3-isopropyl-1H-indol-5-yl)piperidin-1-yl)-2-methylpropan-2-ol] |  |  |  | 10.4 nM | 0.7 nM | 1690 nM |  |  |
| Cc1cc(-c2[nH]c3ccc(C4CCN(CC(=O)NCC5(C)CC5)CC4)cc3c2C(C)C)cc(C)n1 [Example 255, 2-(4-(2-(2,6-dimethylpyridin-4-yl)-3-isopropyl-1H-indol-5-yl)piperidin-1-yl)-N-((1-methylcyclopropyl)methyl)acetamide] | 6.9 nM | 20.4 nM | 654 nM |  |  |  |  |  |
| COCCOCCN1CCC(c2ccc3[nH]c(-c4cc(C)nc(C)c4)c(C(C)C)c3c2)CC1 [Example 324, 2-(2,6-dimethylpyridin-4-yl)-3-isopropyl-5-(1-(2-(2-methoxyethoxy)ethyl)piperidin-4-yl)-1H-indole] | 7.4 nM | 4.4 nM | 413 nM |  |  |  |  |  |
| Cc1cc(-c2[nH]c3ccc(C4CCN(CC(=O)N5CC(O)C5)CC4)cc3c2C(C)C)cc(C)n1 [Example 229, 2-(4-(2-(2,6-dimethylpyridin-4-yl)-3-isopropyl-1H-indol-5-yl)piperidin-1-yl)-1-(3-hydroxyazetidin-1-yl)ethan-1-one] | 6.4 nM |  |  |  |  |  | 7.1 nM | 165 nM |
| Cc1cc(-c2[nH]c3ccc(C4CCN(C(=O)CN5CCC(F)CC5)CC4)cc3c2C(C)C)cc(C)n1 [Example 388, 1-(4-(2-(2,6-dimethylpyridin-4-yl)-3-isopropyl-1H-indol-5-yl)piperidin-1-yl)-2-(4-fluoropiperidin-1-yl)ethan-1-one] | 4.3 nM | 20.9 nM | 831 nM |  |  |  |  |  |
| CCc1c(-c2ccnc(C)c2)[nH]c2ccc(C3CCN(C(=O)[C@@H]4CCCN4)CC3)cc12 [Example 629] | 60.4 nM |  |  |  |  |  | 18.7 nM | 482 nM |
| CCc1c(-c2ccnc(OCCN(C)C)c2)[nH]c2ccc(C3CCN(C4CCN(CC(C)C)CC4)CC3)cc12 [Example 770, 2-((4-(3-ethyl-5-(1′-isobutyl-[1,4′-bipiperidin]-4-yl)-1H-indol-2-yl)pyridin-2-yl)oxy)-N,N-dimethylethan-1-amine] | 6730 nM | > 50000 nM | 310 nM |  |  |  |  |  |
| Cc1cc(-c2[nH]c3ccc(C4CCN(C(=O)CCN5CCOCC5)CC4)cc3c2C(C)C)cc(C)n1 [Example 128, 1-(4-(2-(2,6-dimethylpyridin-4-yl)-3-isopropyl-1H-indol-5-yl)piperidin-1-yl)-3-morpholinopropan-1-one] | 3.9 nM | 15.5 nM | 730 nM |  |  |  |  |  |
| Cc1cc(-c2[nH]c3ccc(C4CCN(S(=O)(=O)c5cn(C)c(C)n5)CC4)cc3c2C(C)C)ccn1 [Example 553, 5-(1-((1,2-dimethyl-1H-imidazol-4-yl)sulfonyl)piperidin-4-yl)-3-isopropyl-2-(2-methylpyridin-4-yl)-1H-indole] | 74.2 nM | 84.3 nM | 31600 nM |  |  |  |  |  |
| Cc1cnc(N)cc1-c1[nH]c2ccc(C3CCNCC3)cc2c1C(C)C [Example 9, 4-(3-isopropyl-5-(piperidin-4-yl)-1H-indol-2-yl)-5-methylpyridin-2-amine] | 75.1 nM | 22.1 nM | 562 nM |  |  |  |  |  |
| Cc1cc(-c2cc3cc(C4CCNCC4)ccc3[nH]2)cc(C)n1 [Example 94, 2-(2,6-dimethylpyridin-4-yl)-5-(piperidin-4-yl)-1H-indole] | 536 nM | 3140 nM | 122 nM |  |  |  |  |  |
| Cc1cc(-c2[nH]c3ccc(C4CCN(C(=O)C5CC5)CC4)cc3c2C(C)C)ccn1 [Example 606, cyclopropyl(4-(3-isopropyl-2-(2-methylpyridin-4-yl)-1H-indol-5-yl)piperidin-1-yl)methanone] | 56.5 nM | 186 nM | 40900 nM |  |  |  |  |  |
| Cc1cc(-c2[nH]c3ccc(C4CCN(Cc5ncco5)CC4)cc3c2C(C)C)cc(C)n1 [Example 449, 2-((4-(2-(2,6-dimethylpyridin-4-yl)-3-isopropyl-1H-indol-5-yl)piperidin-1-yl)methyl)oxazole] | 13.5 nM | 14.3 nM | 2930 nM |  |  |  |  |  |
| Cc1cc(-c2[nH]c3ccc(C4CCN(CC(=O)N5CCCC(F)C5)CC4)cc3c2C(C)C)cc(C)n1 (stereo not drawn) [Example 258, 2-(4-(2-(2,6-dimethylpyridin-4-yl)-3-isopropyl-1H-indol-5-yl)piperidin-1-yl)-1-(3-fluoropiperidin-1-yl)ethan-1-one] | 7.6 nM | 15.6 nM | 903 nM |  |  |  |  |  |
| C=CC(C)(O)CN1CCC(c2ccc3[nH]c(-c4cc(C)nc(C)c4)c(C(C)C)c3c2)CC1 (stereo not drawn) [Example 853, 1-(4-(2-(2,6-dimethylpyridin-4-yl)-3-isopropyl-1H-indol-5-yl)piperidin-1-yl)-2-methylbut-3-en-2-ol] |  |  |  | 2.3 nM | 1 nM | 293 nM |  |  |
| CC(=O)N1CCC(c2ccc3[nH]c(-c4cc(C)nc(C)c4)c(C(C)C)c3c2)CC1 [Example 174, 1-(4-(2-(2,6-dimethylpyridin-4-yl)-3-isopropyl-1H-indol-5-yl)piperidin-1-yl)ethan-1-one] | 5.5 nM | 81.1 nM | 35100 nM |  |  |  |  |  |
| Cc1cc(-c2[nH]c3ccc(C4CCN(CC5CCNC5)CC4)cc3c2C(C)C)cc(C)n1 (stereo not drawn) [Example 466, 2-(2,6-dimethylpyridin-4-yl)-3-isopropyl-5-(1-(pyrrolidin-3-ylmethyl)piperidin-4-yl)-1H-indole] | 6.5 nM | 3.7 nM | 273 nM |  |  |  |  |  |
| Cc1cc(-c2[nH]c3ccc(C4CCN(C(=O)CCn5nc(C)cc5C)CC4)cc3c2C(C)C)cc(C)n1 [Example 125, 3-(3,5-dimethyl-1H-pyrazol-1-yl)-1-(4-(2-(2,6-dimethylpyridin-4-yl)-3-isopropyl-1H-indol-5-yl)piperidin-1-yl)propan-1-one] | 47.4 nM | 224 nM | 45600 nM |  |  |  |  |  |
| Cc1cc(-c2[nH]c3ccc(C4CCN(CC(O)C(F)(F)F)CC4)cc3c2C(C)C)cc(C)n1 (stereo not drawn) [Example 313, 3-(4-(2-(2,6-dimethylpyridin-4-yl)-3-isopropyl-1H-indol-5-yl)piperidin-1-yl)-1,1,1-trifluoropropan-2-ol] | 39.9 nM | 6.3 nM | 8060 nM |  |  |  |  |  |
| Cc1cc(-c2[nH]c3ccc(C4CCNCC4)cc3c2CC(F)F)cc(C)n1 [Example 492, 3-(2,2-difluoroethyl)-2-(2,6-dimethylpyridin-4-yl)-5-(piperidin-4-yl)-1H-indole] | 15.8 nM | 54.1 nM | 539 nM |  |  |  |  |  |
| CC(C)c1c(-c2ccnc(N)c2)[nH]c2ccc(C3CCN(Cc4cnc[nH]4)CC3)cc12 [Example 817, 4-(5-(1-((1H-imidazol-5-yl)methyl)piperidin-4-yl)-3-isopropyl-1H-indol-2-yl)pyridin-2-amine] |  |  |  | 224 nM | 56 nM | 177 nM |  |  |
